Experimental data from publication PMC6831561, “Pharmacological and Behavioral Effects of the Synthetic Cannabinoid AKB48 in Rats” (Frontiers in Neuroscience, 2019).
Where two headings read alike, the source gives them in different places.

What was measured:
rats [1] = assay: Core and surface body temperature; type: in vivo
Procedure: To better assess the effects of the ligands on thermoregulation, we measured both changes in the core (rectal) and surface (ventral fur) temperature. The core temperature was evaluated by a probe (1 mm diameter) that was gently inserted, after lubrication with liquid Vaseline, into the rectum of the rat (to about 2 cm) and left in position until the stabilization of the temperature (about 10 sec; [De Luca et al., 2015]; [Vigolo et al., 2015]). The probe was connected to a Cole Parmer digital thermometer, model 8402. The surface temperature was measured by a Microlife FR 1DZ1 digital infrared thermometer, placed 1 cm from the surface of the abdomen of the rat ([Vigolo et al., 2015]). Core and surface body temperatures were measured at 0, 15, 35, 65, 125, and 190 min.

rats [2] = assay: Conditioned place preference paradigm; type: in vivo
Excerpt: The CPP chambers consisted of two equally sized compartments interconnected by a guillotine door, adopting a classical conditioning procedure that has been successfully used to assess the rewarding properties of several drugs of abuse. The compartments are differentiated by both visual and tactile cues: the color of the walls in each compartment (white or black) and the texture of the floors (wooden flat or metal wired). The box was placed in a dimly illuminated room. Place conditioning morning sessions ran from 8:30 a.m. to noon, while afternoon sessions ran from 2:30 p.m. to 6 p.m.
According to the conditioned place preference paradigm, on day 0 (pre-test), rats freely explored the two compartments for 15 min, and the time spent in each compartment during the exploratory period was measured. Rats that spent 60–70% of the total time on one side were excluded from the experiment. We used an unbiased-like protocol and assigned the drug-paired compartment randomly. On days 1–3 (conditioning phase), male Sprague-Dawley rats (n = 24) were divided into three groups (n = 8 per group) and given injections of AKB48 (0.1 or 0.5 mg/kg) or vehicle twice daily (9:00 a.m. to 7:00 p.m.) and confined to one compartment for 30 min for 3 days. During these conditioning trials, the animals developed an association between the subjective state produced by the drug and the environmental cues present in the compartment in which they received the drug. On day 4 (test day), rats were allowed to explore the two compartments freely for 15 min, and the time spent in each compartment during the exploratory period was measured.
To evaluate if the aversive effect obtained with the higher dose of AKB48 (0.5 mg/kg) was mediated by activation of CB1 cannabinoid receptors, male Sprague-Dawley rats (n = 32) were divided into four groups (n = 8 per group). Group 1 received AKB48 vehicle in both compartments and served as a control. […] CB1 antagonist was injected 20 min before the agonist AKB48, which was given 10 min prior to the test.

hepatocyte model = details: ref Gandhi et al., 2013; cited from earlier work
[3] = AKB48 plasma pharmacokinetics (LC-MS/MS); type: in vivo, rats; details: for Tmax: male, Sprague-Dawley, rat, plasma, ip, read-out: time to peak plasma concentration (converted)
Procedure: To correlate the pharmacological effects of AKB48 with its blood levels, we measured somatosensory responses (visual, acoustic, and tactile), body temperature, and mechanical analgesia in rats at timed intervals post-AKB48 injection (for behavioral tests, see before), while simultaneously obtaining serial blood specimens for analysis of AKB48.
Sixteen male Sprague-Dawley rats were used in the study. Rats were anaesthetized with Equitesin [3 mL/kg intraperitoneal (ip); chloral hydrate 2.1 g, sodium pentobarbital 0.46 g, MgSO 1.06 g, propylene glycol 21.4 mL, ethanol (90%) 5.7 mL, H2O 3 mL] and implanted in the right jugular vein with a catheter, consisting of medical-grade tubing (Silastic, Dow Corning Corporation, MI, United States) according to the technique previously described ([Lecca et al., 2006]). A stable fixation in the mid-scapular region of the back was embedded by a polypropylene mesh (Evolution, BULEV, weight 48 g/mq, Dipromed, Italy). During the recovery period, at least 7 days after surgery, the catheters were flushed daily with 0.1 mL of gentamicin (40 mg/mL) and with heparinized saline (heparin 250 U/mL in 0.9% sterile saline). Fifteen days after recovery from surgery, rats were trained in handling, behavioral tests, and withdrawing blood from the catheter. Four groups of rats (n = 4) randomly received intraperitoneal injection of a single dose of AKB48 (0.1, 0.3, 0.5, or 3.0 mg/kg), and behavioral tests were conducted as previously reported in safety pharmacology studies (see before). Blood specimens (300 μL) were withdrawn via catheters immediately before the behavioral measurements (T = 0) and at 20, 40, 70, 140, and 195 min after drug injection. Blood specimens were collected into 1–mL vials containing sodium fluoride (4 mg/mL of blood) as preservative and anticoagulant. After each blood withdrawal, an equal volume of saline solution was infused via the intravenous catheter to maintain volume and osmotic homeostasis.
A dispersive liquid-liquid microextraction (DLLME) was performed for sample purification. Three hundred microliter of blood samples were spiked with 10 μL of JWH-209 D9 as an internal standard, achieving the final concentration of 20 ng/mL, and deproteinized with 500 μL of methanol. The sample was centrifuged at 10,000 rpm for 10 min, and 500 μL surnatant was transferred into a 15 mL conical tube containing 1 mL of water, 0.2 g of NaCl, and 100 μL of carbonate buffer, pH 9. In order to obtain the formation of the cloudy solution, 350 μL of a mixture, chloroform/methanol 1:2.5, respectively the extractant and the disperser solvent, was rapidly added to obtain the formation of a turbid mixture. […]

SMILES | time at which the core temperature effect was evident (rats [1]; AKB48 3 mg/kg i.p.) [min] | surface body temperature (rats [1]; AKB48 0.1–3 mg/kg i.p.) | core body temperature (rats [1]; AKB48, only at 3 mg/kg i.p.) | conditioned place preference (rats [2]; AKB48 0.1 mg/kg) | conditioned place preference (rats [2]; AKB48 0.5 mg/kg) | number of major metabolites (hepatocyte model) | plasma concentration versus dose ([3]; 0.1–3.0 mg/kg i.p.) | plasmatic concentrations after the peak ([3]; for the following 120 min) | Tmax ([3]; higher doses (0.5 and 3.0 mg/kg i.p.)) [min] | Tmax ([3]; low doses (0.1 and 0.3 mg/kg i.p.)) [min] | response to AM251 alone in the body temperature section (rats [1]; AM251 1 mg/kg i.p. alone) | hypothermia induced by AKB48, after AM251 pre-treatment (rats [1]; AM251 1 mg/kg i.p. before AKB48 3 mg/kg i.p.) | aversive effect of AKB48 on place preference, with AM251 (rats [2]; AM251 1 mg/kg i.p. + AKB48 0.5 mg/kg)
CCCCCn1nc(C(=O)NC23CC4CC(CC(C4)C2)C3)c2ccccc21 [AKB48, N-(1-adamantyl)-1-pentyl-1H-indazole-3-carboxamide] | 65 | did not affect | reduced | ineffective | significant aversive effect | 11 | rising linearly | remained quite stable | 60 | 30 |  |  | 
Cc1c(C(=O)NN2CCCCC2)nn(-c2ccc(Cl)cc2Cl)c1-c1ccc(I)cc1 [AM251, 1-(2,4-dichlorophenyl)-5-(4-iodophenyl)-4-methyl-N-(piperidin-1-yl)-1H-pyrazole-3-carboxamide, reference compound] |  |  |  |  |  |  |  |  |  |  | did not alter | prevented | blocked
